Laboratory results taken from patent publication EP4733388A1, “LACTOBACILLUS RHAMNOSUS STRAIN, VIABLE BACTERIA FORMULATION AND PREPARATION METHOD THEREFOR AND USE THEREOF” (priority 2023, dated 2024).

Columns and labels:
[1] = tested on: L. rhamnosus HOM1213 strain; test: Antibiotic susceptibility test, K-B agar method (disc diffusion); for Susceptibility (class by Diameter of Inhibition Zone), HOM1213 Group: key: S (susceptible) represents sensitivity; I (intermediate) represents moderate sensitivity; R (resistance) represents drug resistance; type: cell-based, Lactobacillus rhamnosus; settings: for Susceptibility (class by Diameter of Inhibition Zone), HOM1213 Group: standard antibiotic disc, 37°C, 48 h, CLSI criteria, breakpoints in mm per antibiotic in c1-c3; for Susceptibility of L. rhamnosus HOM1213 strain to the antibiotic, in words: summary of Table 3
Description: (§1) The drug susceptibility test was performed using the K-B agar method recommended by the National Committee for Clinical Laboratory Standards (NCCLS), the drug sensitivity test, as follows: • (1) The commercial strain L. rhamnosus GG strain was selected as the control strain. The L. rhamnosus HOM1213 strain and the GG strain were inoculated in MRS liquid medium at an inoculation amount of 3% of the total amount of the medium, cultured at 37°C for 24 hours, and activated continuously for 3 generations for later use. • (2) 1 mL of bacterial solution (1.5 × 10^8 CFU/mL) and 15 mL of MRS solid medium were mixed, and placed in a sterile culture dish, and mixed uniformly. A standard antibiotic susceptibility testing disc was placed after the plate was solidified, and cultured at 37°C for 48 h, and the diameter of the inhibition zone was measured and recorded.
(§2) Table 3. Results of susceptibility test of L. rhamnosus HOM1213 strain on nine antibiotics.

L. rhamnosus GG strain = test: as above; type: cell-based, Lactobacillus rhamnosus; settings: standard antibiotic disc, 37°C, 48 h; CLSI criteria, breakpoints in mm per antibiotic in c1-c3; note: key: S (susceptible) represents sensitivity; I (intermediate) represents moderate sensitivity; R (resistance) represents drug resistance
Description: as §1, §2

glutathione (GSH) = test: In vitro antioxidant capacity test: glutathione (GSH); settings: strain suspension 2 × 10^10 CFU/ml; vitamin C 0.05%; mean ± SD
Description: (§3) The L. rhamnosus HOM1213 isolated in Example 1 and GG strains were inoculated in an MRS liquid medium at an inoculation amount of 3% of the total amount of the medium, fermented and cultured at 37°C for 24 h, activated continuously for 3 generations. It was centrifuged at 11000 rpm for 10 min, and the bacterial cells were washed with PBS buffer, resuspended and centrifuged, repeated three times. The count of bacteria was adjusted to 2 × 10^10 CFU/ml for later use. Indicators included total antioxidant capacity (T-AOC), superoxide dismutase (SOD), glutathione peroxidase (GSH-Px), glutathione (GSH), hydroxyl radical scavenging test (·OH), and DPPH radical scavenging test. The DPPH free radical scavenging test used a colorimetric method, and its principle was that the free radical scavenger donated an electron to pair with the lone pair electron of the DPPH free radicals, so that its own color changed from purple to yellow. Its absorbance at the wavelength of 517 nm decreased, and the degree of change has a linear relation to the degree of free radical scavenging, that is, the stronger the scavenging ability of the free radical scavenger, the lower the absorbance. Other indicators were determined by using a kit purchased from Nanjing Jiancheng Company, according to operation instructions. […]

[2] = DPPH radical scavenging test (colorimetric, 517 nm); settings: strain suspension 2 × 10^10 CFU/ml; vitamin C 0.05%; mean ± SD
Description: as §3

[3] = In vitro antioxidant capacity test: total antioxidant capacity (T-AOC); settings: strain suspension 2 × 10^10 CFU/ml; vitamin C 0.05%; mean ± SD
Description: as §3

[4] = Hydroxyl radical scavenging test (·OH); settings: strain suspension 2 × 10^10 CFU/ml; vitamin C 0.05%; mean ± SD
Description: as §3

[5] = tested on: superoxide dismutase (SOD); test: In vitro antioxidant capacity test: superoxide dismutase (SOD); settings: strain suspension 2 × 10^10 CFU/ml; vitamin C 0.05%; mean ± SD
Description: as §3

Row | Compound | Susceptibility (class by Diameter of Inhibition Zone), HOM1213 Group [1] | Susceptibility of L. rhamnosus HOM1213 strain to the antibiotic, in words [1] | Susceptibility (class by Diameter of Inhibition Zone), GG Group (L. rhamnosus GG strain) | also measured
1 | CC1(C)S[C@@H]2[C@H](NC(=O)[C@H](N)c3ccccc3)C(=O)N2[C@H]1C(=O)O [Ampicillin] | R | resistant | R | 
2 | O=C(N[C@H](CO)[C@H](O)c1ccc([N+](=O)[O-])cc1)C(Cl)Cl [Chloramphenicol] | S |  | S | 
3 | CCC[C@@H]1C[C@@H](C(=O)N[C@@H]([C@H]2O[C@H](SC)[C@H](O)[C@@H](O)[C@H]2O)[C@H](C)Cl)N(C)C1 [Clindamycin] | S |  | S | 
4 | CC[C@H]1OC(=O)[C@H](C)[C@@H](O[C@H]2C[C@@](C)(OC)[C@@H](O)[C@H](C)O2)[C@H](C)[C@@H](O[C@@H]2O[C@H](C)C[C@H](N(C)C)[C@H]2O)[C@](C)(O)C[C@@H](C)C(=O)[C@H](C)[C@@H](O)[C@]1(C)O [Erythromycin] | S |  | S | 
5 | NC[C@H]1O[C@H](O[C@H]2[C@H](O)[C@@H](O[C@H]3O[C@H](CO)[C@@H](O)[C@H](N)[C@H]3O)[C@H](N)C[C@@H]2N)[C@H](O)[C@@H](O)[C@@H]1O [Kanamycin] | R |  | R | 
6 | [H]/N=C(/N)N[C@H]1[C@H](O)[C@@H](O)[C@H](O[C@@H]2O[C@@H](C)[C@](O)(C=O)[C@H]2O[C@@H]2O[C@@H](CO)[C@H](O)[C@@H](O)[C@@H]2NC)[C@@H](N/C(N)=N\[H])[C@@H]1O [Streptomycin] | I | moderately resistant | I | 
7 | CN(C)[C@@H]1C(O)=C(C(N)=O)C(=O)[C@@]2(O)C(O)=C3C(=O)c4c(O)cccc4[C@@](C)(O)[C@H]3C[C@@H]12 [Tetracycline] | S |  | S | 
8 | CN[C@H](CC(C)C)C(=O)N[C@H]1C(=O)N[C@@H](CC(N)=O)C(=O)N[C@H]2C(=O)N[C@H]3C(=O)N[C@H](C(=O)N[C@H](C(=O)O)c4cc(O)cc(O)c4-c4cc3ccc4O)[C@H](O)c3ccc(c(Cl)c3)Oc3cc2cc(c3O[C@@H]2O[C@H](CO)[C@@H](O)[C@H](O)[C@H]2O[C@H]2C[C@](C)(N)[C@H](O)[C@H](C)O2)Oc2ccc(cc2Cl)[C@H]1O [Vancomycin] | R | resistant | R | 
9 | O=C1O[C@H]([C@@H](O)CO)C(O)=C1O [Vitamin C] |  |  |  | GSH (glutathione (GSH)): 0.33±0.06 mgGSH/L; DPPH Scavenging Rate (%) [2]: 96.14±0.08%; T-AOC [3]: 16.90±1.42 U/mL; ·OH Scavenging Rate (%) [4]: 36.70±1.33%; SOD [5]: 18.07±1.08 U/mL
10 | Gentamicin | R | resistant | R | 
